Reference: paper PMC8364686, “Safety, tolerability, pharmacokinetics and pharmacodynamics of single oral doses of BI 187004, an inhibitor of 11beta-hydroxysteroid dehydrogenase-1, in healthy male volunteers with overweight or obesity” (Clinical Diabetes and Endocrinology, 2021)

Assay: Plasma pharmacokinetics of BI 187004 after single oral doses (LC–MS/MS)
Conditions: male, human, plasma, po

N#Cc1ccc2c(c1)[C@H]1CCCN(C(=O)c3ccc4[nH]cnc4c3)[C@H]1C2 [BI 187004]
concentration at 2.5 h (2.5 mg, Plasma concentration gMean, 2.5 mg single oral, 2.5 h): 7.33 nM | concentration at 3 h (2.5 mg, Plasma concentration gMean, 2.5 mg single oral, 3 h): 6.19 nM | concentration at 4 h (2.5 mg, Plasma concentration gMean, 2.5 mg single oral, 4 h): 5.87 nM | concentration at 5 h (2.5 mg, Plasma concentration gMean, 2.5 mg single oral, 5 h): 6.61 nM | concentration at 6 h (2.5 mg, Plasma concentration gMean, 2.5 mg single oral, 6 h): 5.38 nM | concentration at 10 h (2.5 mg, Plasma concentration gMean, 2.5 mg single oral, 10 h): 4.38 nM | concentration at 12 h (2.5 mg, Plasma concentration gMean, 2.5 mg single oral, 12 h): 4.53 nM | concentration at 24 h (2.5 mg, Plasma concentration gMean, 2.5 mg single oral, 24 h): 4.54 nM | concentration at 48 h (2.5 mg, Plasma concentration gMean, 2.5 mg single oral, 48 h): 3.93 nM | concentration at 8 h (2.5 mg, Plasma concentration, individual subjects, 2.5 mg single oral, planned time 8 h): 6.73 nM | concentration at 10 h (2.5 mg, Plasma concentration, individual subjects, 2.5 mg single oral, planned time 10 h): 5.99 nM | concentration at 12 h (2.5 mg, Plasma concentration, individual subjects, 2.5 mg single oral, planned time 12 h): 6.44 nM | concentration at 24 h (2.5 mg, Plasma concentration, individual subjects, 2.5 mg single oral, planned time 24 h): 4.19 nM | concentration at 36 h (2.5 mg, Plasma concentration, individual subjects, 2.5 mg single oral, planned time 36 h): 5.06 nM | concentration at 48 h (2.5 mg, Plasma concentration, individual subjects, 2.5 mg single oral, planned time 48 h): 3.58 nM | concentration at 72 h (2.5 mg, Plasma concentration, individual subjects, 2.5 mg single oral, planned time 72 h): 3.34 nM | concentration at 96 h (2.5 mg, Plasma concentration, individual subjects, 2.5 mg single oral, planned time 96 h): 3.04 nM | AUC(0-inf) (5 mg): 2.5 µM·h | AUC(0-t) (5 mg): 1.49 µM·h | Cmax (5 mg): 150 nM | Tmax (5 mg): 1 h | Vd/F (5 mg): 281 L | half-life (5 mg): 33.5 h | concentration at 24 h (5 mg, C24 gMean (%gCV), 5 mg single oral dose): 30 nM | concentration at 0.5 h (5 mg, Plasma concentration Mean, 5 mg single oral): 101 nM | concentration at 1 h (5 mg, Plasma concentration Mean, 5 mg single oral, 1 h): 147 nM | concentration at 1.5 h (5 mg, Plasma concentration Mean, 5 mg single oral, 1.5 h): 135 nM | concentration at 2 h (5 mg, Plasma concentration Mean, 5 mg single oral, 2 h): 122 nM | concentration at 2.5 h (5 mg, Plasma concentration Mean, 5 mg single oral, 2.5 h): 123 nM | concentration at 3 h (5 mg, Plasma concentration Mean, 5 mg single oral, 3 h): 114 nM | concentration at 4 h (5 mg, Plasma concentration Mean, 5 mg single oral, 4 h): 105 nM | concentration at 5 h (5 mg, Plasma concentration Mean, 5 mg single oral, 5 h): 97.4 nM | concentration at 6 h (5 mg, Plasma concentration Mean, 5 mg single oral, 6 h): 81.2 nM | concentration at 8 h (5 mg, Plasma concentration Mean, 5 mg single oral, 8 h): 72.9 nM | concentration at 10 h (5 mg, Plasma concentration Mean, 5 mg single oral, 10 h): 58 nM | concentration at 12 h (5 mg, Plasma concentration Mean, 5 mg single oral, 12 h): 49.7 nM | concentration at 24 h (5 mg, Plasma concentration Mean, 5 mg single oral, 24 h): 31 nM | concentration at 36 h (5 mg, Plasma concentration Mean, 5 mg single oral, 36 h): 14.9 nM | concentration at 48 h (5 mg, Plasma concentration Mean, 5 mg single oral, 48 h): 13.1 nM | concentration at 72 h (5 mg, Plasma concentration Mean, 5 mg single oral, 72 h): 7.42 nM | concentration at 96 h (5 mg, Plasma concentration Mean, 5 mg single oral, 96 h): 4.78 nM | concentration at 0.5 h (5 mg, Plasma concentration Median, 5 mg single oral): 128 nM | concentration at 1 h (5 mg, Plasma concentration Median, 5 mg single oral, 1 h): 141 nM | concentration at 1.5 h (5 mg, Plasma concentration Median, 5 mg single oral, 1.5 h): 140 nM | concentration at 2 h (5 mg, Plasma concentration Median, 5 mg single oral, 2 h): 126 nM | concentration at 2.5 h (5 mg, Plasma concentration Median, 5 mg single oral, 2.5 h): 121 nM | concentration at 3 h (5 mg, Plasma concentration Median, 5 mg single oral, 3 h): 113 nM | concentration at 4 h (5 mg, Plasma concentration Median, 5 mg single oral, 4 h): 98.4 nM | concentration at 5 h (5 mg, Plasma concentration Median, 5 mg single oral, 5 h): 98.1 nM | concentration at 6 h (5 mg, Plasma concentration Median, 5 mg single oral, 6 h): 78.8 nM | concentration at 8 h (5 mg, Plasma concentration Median, 5 mg single oral, 8 h): 71 nM | concentration at 10 h (5 mg, Plasma concentration Median, 5 mg single oral, 10 h): 57.1 nM | concentration at 12 h (5 mg, Plasma concentration Median, 5 mg single oral, 12 h): 50.3 nM | concentration at 24 h (5 mg, Plasma concentration Median, 5 mg single oral, 24 h): 32.2 nM | concentration at 36 h (5 mg, Plasma concentration Median, 5 mg single oral, 36 h): 15.5 nM | concentration at 48 h (5 mg, Plasma concentration Median, 5 mg single oral, 48 h): 11.2 nM | concentration at 72 h (5 mg, Plasma concentration Median, 5 mg single oral, 72 h): 6.1 nM | concentration at 96 h (5 mg, Plasma concentration Median, 5 mg single oral, 96 h): 4.24 nM | concentration at 0.5 h (5 mg, Plasma concentration gMean, 5 mg single oral): 63.7 nM | concentration at 1 h (5 mg, Plasma concentration gMean, 5 mg single oral, 1 h): 144 nM | concentration at 1.5 h (5 mg, Plasma concentration gMean, 5 mg single oral, 1.5 h): 134 nM | concentration at 2 h (5 mg, Plasma concentration gMean, 5 mg single oral, 2 h): 121 nM | concentration at 2.5 h (5 mg, Plasma concentration gMean, 5 mg single oral, 2.5 h): 122 nM | concentration at 3 h (5 mg, Plasma concentration gMean, 5 mg single oral, 3 h): 113 nM | concentration at 4 h (5 mg, Plasma concentration gMean, 5 mg single oral, 4 h): 104 nM | concentration at 5 h (5 mg, Plasma concentration gMean, 5 mg single oral, 5 h): 96 nM | concentration at 6 h (5 mg, Plasma concentration gMean, 5 mg single oral, 6 h): 79.9 nM | concentration at 8 h (5 mg, Plasma concentration gMean, 5 mg single oral, 8 h): 71.8 nM | concentration at 10 h (5 mg, Plasma concentration gMean, 5 mg single oral, 10 h): 56.8 nM | concentration at 12 h (5 mg, Plasma concentration gMean, 5 mg single oral, 12 h): 48.5 nM | concentration at 24 h (5 mg, Plasma concentration gMean, 5 mg single oral, 24 h): 30 nM | concentration at 36 h (5 mg, Plasma concentration gMean, 5 mg single oral, 36 h): 14.2 nM | concentration at 48 h (5 mg, Plasma concentration gMean, 5 mg single oral, 48 h): 12.5 nM | concentration at 72 h (5 mg, Plasma concentration gMean, 5 mg single oral, 72 h): 7.05 nM | concentration at 96 h (5 mg, Plasma concentration gMean, 5 mg single oral, 96 h): 4.6 nM | concentration at 1 h (5 mg, Plasma concentration, individual subjects, 5 mg single oral, planned time 1 h): 112 nM | concentration at 1.5 h (5 mg, Plasma concentration, individual subjects, 5 mg single oral, planned time 1.5 h): 144 nM | concentration at 2 h (5 mg, Plasma concentration, individual subjects, 5 mg single oral, planned time 2 h): 127 nM | concentration at 2.5 h (5 mg, Plasma concentration, individual subjects, 5 mg single oral, planned time 2.5 h): 122 nM | concentration at 3 h (5 mg, Plasma concentration, individual subjects, 5 mg single oral, planned time 3 h): 118 nM | concentration at 4 h (5 mg, Plasma concentration, individual subjects, 5 mg single oral, planned time 4 h): 99.5 nM | concentration at 5 h (5 mg, Plasma concentration, individual subjects, 5 mg single oral, planned time 5 h): 96.9 nM | concentration at 6 h (5 mg, Plasma concentration, individual subjects, 5 mg single oral, planned time 6 h): 80.6 nM | concentration at 8 h (5 mg, Plasma concentration, individual subjects, 5 mg single oral, planned time 8 h): 72.1 nM | concentration at 24 h (5 mg, Plasma concentration, individual subjects, 5 mg single oral, planned time 24 h): 35.1 nM | concentration at -0.5 h (5 mg, Plasma concentration, individual subjects, 5 mg single oral, planned time –0.5 h): 90.2 nM | AUC(0-inf) (10 mg): 5.91 µM·h | AUC(0-t) (10 mg): 4.38 µM·h | Cmax (10 mg): 502 nM | Tmax (10 mg): 1 h | Vd/F (10 mg): 169 L | half-life (10 mg): 23.7 h | concentration at 24 h (10 mg, C24 gMean (%gCV), 10 mg single oral dose): 71.3 nM | concentration at 0.5 h (10 mg, Plasma concentration Mean, 10 mg single oral): 365 nM | concentration at 1 h (10 mg, Plasma concentration Mean, 10 mg single oral, 1 h): 429 nM | concentration at 1.5 h (10 mg, Plasma concentration Mean, 10 mg single oral, 1.5 h): 438 nM | concentration at 2 h (10 mg, Plasma concentration Mean, 10 mg single oral, 2 h): 382 nM | concentration at 2.5 h (10 mg, Plasma concentration Mean, 10 mg single oral, 2.5 h): 376 nM | concentration at 3 h (10 mg, Plasma concentration Mean, 10 mg single oral, 3 h): 339 nM | concentration at 4 h (10 mg, Plasma concentration Mean, 10 mg single oral, 4 h): 346 nM | concentration at 5 h (10 mg, Plasma concentration Mean, 10 mg single oral, 5 h): 277 nM | concentration at 6 h (10 mg, Plasma concentration Mean, 10 mg single oral, 6 h): 260 nM | concentration at 8 h (10 mg, Plasma concentration Mean, 10 mg single oral, 8 h): 213 nM | concentration at 10 h (10 mg, Plasma concentration Mean, 10 mg single oral, 10 h): 182 nM | concentration at 12 h (10 mg, Plasma concentration Mean, 10 mg single oral, 12 h): 146 nM
